Experimental data as given in paper PMC8620715, “Biological Activity of Triazolopyrimidine Copper(II) Complexes Modulated by an Auxiliary N-N-Chelating Heterocycle Ligands” (Molecules, 2021).

System: plasmid pRSII325
Test: Nuclease activity assay (gel electrophoresis)
Type: biochemical
Conditions: 37 °C; for DNA cleavage in the presence of H2O2: 0.1 and 0.5 mM complex + 1 mM H2O2, 1 h; for DNA cleavage in the presence of ascorbate: 0.1 and 0.5 mM complex + 1 mM ascorbate; for DNA cleavage in the presence of ascorbate / DNA cleavage, complex alone: 1 h; for DNA cleavage, complex alone: 0.1 and 0.5 mM
Procedure: To investigate the DNA cleavage activity of the two Cu(II) complexes, plasmidial DNA was incubated with (1) and (2), both in the absence or in the presence of activating agents, such as H2O2 or ascorbate. Exposure of DNA to the Cu(II) complexes in the presence of H2O2 exploits the CuII/III redox couple, while in the presence of ascorbate, the CuI/II redox couple is exploited. The nuclease activity of copper(II) complexes (1) and (2) was tested on plasmid pRSII325, which is a 6835 bp (base pair) circular plasmid. Gel electrophoresis of purified pRSII325 identified two main bands belonging to the supercoiled (SC) plasmid, which migrates faster, and the nicked-circular (NC) plasmid, which migrates slower (Figure 12, lane 1).
The nuclease activity of the compounds was determined using plasmid […] DNA, which was a gift from Steven Haase (Addgene plasmid #35467, 6835 base pairs). The plasmid was amplified in Escherichia coli by transforming One Shot® TOP10 chemically competent E. coli (Invitrogen, Thermo Fisher Scientific). The plasmid was isolated from positive colonies using a PureLink™ HiPure Plasmid Miniprep Kit (Invitrogen, Thermo Fisher Scientific). Plasmid (200 ng/sample) was exposed to complexes (1) and (2) in the presence of 1 mM hydrogen peroxide (to exploit the Cu(II/III) redox couple) or 1 mM ascorbic acid (to exploit the Cu(I/II) redox couple). The DNA cleavage experiments were done in a 9/1 (v/v) ratio of 50 mM Tris-HCl, pH 8, and DMSO. The samples were incubated for 1 h at 37 °C before a bromophenol blue/xylene cyanol-based loading dye (Roth, Germany) was added. The samples were loaded onto a 1% (w/v) agarose gel containing 1 μg/mL EtBr in 1 × TBE (Tris–boric acid–EDTA) buffer. Electrophoresis was performed at 50 V for 60 min in 1 × TBE buffer. The images of the fluorescent ethidium bromide-stained gels were captured using a gel documentation system (Doc-Print II, VilberLourmat, France). The cleavage experiments were done three times, with similar results. One representative gel is shown.

SMILES | DNA cleavage in the presence of H2O2 | DNA cleavage in the presence of ascorbate | DNA cleavage, complex alone
Cc1cc(C)n2ncnc2n1.Cc1cc(C)n2ncnc2n1.Cc1cc(C)n2ncnc2n1.O.[Cu+2].[O-][Cl+3]([O-])([O-])[O-].[O-][Cl+3]([O-])([O-])[O-].c1cnc2c(c1)ccc1cccnc12 [Complex (2), [Cu(phen)(dmtp)2(OH2)](ClO4)2·dmtp] | H2O2 strongly enhancing the nuclease activity | a higher concentration of (2) was needed for full nuclease activity | caused plasmid relaxation to the NC form
Cc1cc(C)n2ncnc2n1.Cc1cc(C)n2ncnc2n1.Cc1cc(C)n2ncnc2n1.O.[Cu+2].[O-][Cl+3]([O-])([O-])[O-].[O-][Cl+3]([O-])([O-])[O-].c1ccc(-c2ccccn2)nc1 [Complex (1), [Cu(bpy)(dmtp)2(OH2)](ClO4)2·dmtp] | led to DNA degradation | led to DNA degradation | caused plasmid relaxation to the NC form
